Here are results for 1 compound from US6433197B1, “Substituted oxygen alicyclic compounds, including methods for synthesis thereof” (Millennium Pharmaceuticals, Inc., priority 1998, dated 2002).

This assay has as its system Leukotriene B4. In words: Human whole blood assay, Leukotriene B4 inhibition. Format: cell-based. To be noted: heparinized human whole blood; pre-incubated 15 minutes at 37° C.; stimulated with 50 μM calcium ionphor for 30 minutes at 37° C.; EIA; read-out: IC50 (Leukotriene B4 inhibition, LTB4 content of plasma). How it is done: The following compound of the invention was tested for Leukotriene B4 inhibition in the human whole blood assay detailed below. [drawing 40]
Heparinized human whole blood was pre-incubated with selected concentrations of the test compound for 15 minutes at 37° C. and stimulated with 50 μM calcium ionphor for 30 minutes at 37° C. The reaction was stopped by placing samples on ice and cold centrifugation at 4° C. for 10 minutes at 1100×g. Test sample plasma was diluted in buffer and assayed for LTB4 content. Test compound activity was determined as per Cayman […] EIA and evaluated as IC50 [nM].

For orientation: IC50 means the point on the concentration scale where inhibition reaches its midpoint.

In the case of `NC(=O)N(O)CC#CC1CC[C@@H](Cc2ccc(F)cc2)O1` (stereo partly shown), the IC50 was 148 nM.
